{"source": "patent US5874446A", "about": "“Benzopyran derivatives” (Chugai Seiyaku Kabushiki Kaisha, priority 1992, dated 1999)", "key": {"[1]": {"system": "Excised Aorta of Rat (thoracic aorta ring preparations)", "assay": "Test with Excised Aorta of Rat: relaxation of lasting contraction by KCl", "type": "cell-based, male Sprague Dawley rat", "conditions": "50% inhibitory concentration, relaxation of 30 mM KCl contraction, Krebs-Henseleit, 37° C.", "procedure": "Test with Excised Aorta of Rat\nThe thoracic aorta was excised from a male Sprague Dawley rat (450 to 600 g) and cut into 2 mm wide ring preparations. Each preparation was suspended in 10 ml of an Organ bath containing a Krebs-Henseleit solution (NaCl:119; KCl:4.8; CaCl2.2H2 O:2.53; KH2 PO4 :1.2; MgSO4.7H2 O:1.2; NaHCO3 :24.8; glucose:10(mM); 37° C.) under a tension of 2 g, and a mixed gas of 95% O2 and 5% CO2 was bubbled therethrough. Contraction reactions of the preparation were isometrically recorded by means of an FD pick-up. […] The activity of a test compound to relax a lasting contraction by the addition of KCl was evaluated by obtaining a 50% inhibitory concentration (IC50)\nThe compounds of the present invention obtained in the foregoing Examples and Cromakalim was used as test compound for comparison."}, "[2]": {"system": "Guinea Pig Tracheal Muscle", "assay": "Test with Guinea Pig Tracheal Muscle: relaxing activity on spontaneous tension", "type": "cell-based, male Hartley guinea pig", "conditions": "Cavia porcellus; 50% relaxing activity; 1 mM aminophylline on spontaneous tension taken as 100%; Krebs-Henseleit, 37° C.", "procedure": "Test with Guinea Pig Tracheal Muscle\nThe trachea was excised from a male Hartley guinea pig (450 to 550 g) to make chain preparations. The preparation was suspended in a bath containing the abovementioned Krebs-henseleit solution (37° C.) through which a mixed gas of 95% O2 and 5% CO2 was bubbled. Contraction reactions of the preparation were isometrically recorded under a tension of 1 g.\nThe same test compound as used in Text Example 1 were used."}}, "data": [{"smiles": "O=C1CCCCN1[C@@H]1c2cc([N+](=O)[O-])ccc2OC(CF)(CF)[C@H]1O", "note": "(relative stereo) [Compound 6-2, Trans-2,2-bisfluoromethyl-3,4-dihydro-6-nitro-4-(2-oxo-1-piperidinyl)-2H-1-benzopyran-3-ol]", "values": [{"measurement": "IC50", "setting": "[1]", "value": 2.6, "unit": "nM"}, {"measurement": "IC50", "setting": "[2]", "value": 6.8, "unit": "nM"}]}, {"smiles": "[O-][n+]1ccccc1C1=CC(CF)(CF)Oc2ccc(C(F)(F)C(F)(F)F)cc21", "note": "[Compound 48, 2-(6-Pentafluoroethyl-2,2-bisfluoromethyl-2H-1-benzopyran-4-yl)pyridine N-oxide]", "values": [{"measurement": "IC50", "setting": "[1]", "value": 1.6, "unit": "nM"}, {"measurement": "IC50", "setting": "[2]", "value": 3.9, "unit": "nM"}]}, {"smiles": "N#C[N-][n+]1ccccc1C1=CC(CF)(CF)Oc2ccc(C(F)(F)C(F)(F)F)cc21", "note": "[Compound 55, 2-(6-Pentafluoroethyl-2,2-bisfluoromethyl-2H-1-benzopyran-4-yl)pyridine N-cyanoimine]", "values": [{"measurement": "IC50", "setting": "[1]", "value": 0.82, "unit": "nM"}, {"measurement": "IC50", "setting": "[2]", "value": 6.3, "unit": "nM"}]}, {"smiles": "[O-][n+]1ccccc1C1=CC(CF)(CF)Oc2ccc(C(F)(F)F)cc21", "note": "[Compound 50, 2-(2,2-Bisfluoromethyl-6-trifluoromethyl-2H-1-benzopyran-4-yl)pyridine N-oxide]", "values": [{"measurement": "IC50", "setting": "[2]", "value": 18, "unit": "nM"}]}, {"smiles": "O=c1ccccn1C1=CC(CF)(CF)Oc2ccc([N+](=O)[O-])cc21", "note": "[Compound 12, 2,2-Bisfluoromethyl-6-nitro-4-(1,2-dihydro-2-oxo-1-pyridyl)-2H-1-benzopyran]", "values": [{"measurement": "IC50", "setting": "[1]", "value": 2.5, "unit": "nM"}, {"measurement": "IC50", "setting": "[2]", "value": 5.9, "unit": "nM"}]}, {"smiles": "CC1(C)Oc2ccc(C#N)cc2[C@@H](N2CCCC2=O)[C@@H]1O", "note": "(relative stereo) [Cromakalim, reference compound]", "values": [{"measurement": "IC50", "setting": "[1]", "value": 170, "unit": "nM"}, {"measurement": "IC50", "setting": "[2]", "value": 860, "unit": "nM"}]}, {"smiles": "N#Cc1ccc2c(c1)[C@@H](N1CCCC1=O)[C@H](O)C(CF)(CF)O2", "note": "(relative stereo) [Compound 2-2, Trans-6-cyano-2,2-bisfluoromethyl-3,4-dihydro-4-(2-oxo-1-pyrrolidinyl)-2H-1-benzopyran-3-ol]", "values": [{"measurement": "IC50", "setting": "[1]", "value": 74, "unit": "nM"}, {"measurement": "IC50", "setting": "[2]", "value": 390, "unit": "nM"}]}, {"smiles": "N#C[N-][n+]1ccccc1C1=CC(CF)(CF)Oc2ccc([N+](=O)[O-])cc21", "note": "[Compound 52, 2-(2,2-Bisfluoromethyl-6-nitro-2H-1-benzopyran-4-yl)pyridine N-cyanoimine]", "values": [{"measurement": "IC50", "setting": "[1]", "value": 2, "unit": "nM"}, {"measurement": "IC50", "setting": "[2]", "value": 12, "unit": "nM"}]}, {"smiles": "O=C1CCCCN1[C@@H]1c2cc(C(F)(F)C(F)(F)F)ccc2OC(CF)(CF)[C@H]1O", "note": "(relative stereo) [Compound 4-2, Trans-6-pentafluoroethyl-2,2-bisfluoromethyl-3,4-dihydro-4-(2-oxo-1-piperidinyl)-2H-1-benzopyran-3-ol]", "values": [{"measurement": "IC50", "setting": "[1]", "value": 0.28, "unit": "nM"}, {"measurement": "IC50", "setting": "[2]", "value": 6.9, "unit": "nM"}]}]}
